Results from patent US12708630B2, “Combined therapy of 4′-thio-5-aza-2′-deoxycytidine and Venetoclax” (PINOTBIO, INC., priority 2021, dated 2026).

Key:
GLP dog toxicology study = format: in vivo; details: dog, 0.15, 0.5 and 1.0 mg/kg per day
Description: GLP-Tox studies have been conducted in rats and dogs, with 2 cycles of QD×5d at PO.
In a GLP dog toxicology study, Aza-T-dCyd was administered at 0.15, 0.5, and 1.0 mg/kg (3, 10, and 20 mg/m^2) per day. […] The maximum tolerated dose (MTD) was between 0.5 and 1 mg/kg (10~20 mg/m^2) per day, the highest non-toxic dose (HNSTD) was 0.5 mg/kg (10 mg/m^2) per day, and the no observed adverse effect level (NOAEL) was <0.15 mg/kg (3) mg/m^2) per day.

MDS/AML model = experiment: AUC exposure versus efficacy in the MDS/AML model; format: in vivo
DNMT3B = DNMT3B (Homo sapiens, UniProt Q9UBC3); experiment: Western blotting of Molm13 xenograft cancer tissues, DNMT3B; format: in vivo; parameters: cancer tissues were harvested and analyzed by Western blotting; from tissue; host or cells: Molm13 leukemia xenograft cancer tissue
DNA methylation = experiment: DNA demethylation; format: cell-based
Description: Through DNA demethylation caused by Aza-T-dCyd treatment, various tumor suppressor genes and genes required for differentiation induction of AML cells were reactivated, and the reactivated expression patterns of these genes were confirmed by RNA-seq data analysis (FIG. 24).

BL0382PD PDX (bladder) = format: in vivo, Mouse; details: NSG mouse, 1 mg/kg, (4) cycles
Description: The efficacy of Aza-T-dCyd was confirmed by tumor growth curves after administration of Aza-T-dCyd in various solid cancer xenograft models. […]

[1] = tested on: DNMT1 knock-out MV4-11 cells; experiment: Target engagement: cytotoxicity in DNMT1 knock-out MV4-11 cell line; format: cell-based; details: DNMT1 knock-out (siRNA) MV4-11, concentration-dependent treatment
Description: This confirms that Aza-T-dCyd has potent pharmacological effects through DNMT1 (FIG. 18).

leukemia cell lines = experiment: Growth-inhibitory activity on leukemia cell lines (GI50); format: cell-based; details: leukemia cell lines, 72 hours, range over cell lines; read-out: GI50 values (half maximal growth inhibitory concentrations)
Description: The growth-inhibitory activity of Aza-T-dCyd, a DNMT1 inhibitor, was measured in leukemia cell lines to determine its inhibitory effect on cell proliferation.
The growth-inhibitory activity of DNMT1 inhibitors, Aza-T-dCyd and Decitabine, was measured on leukemia cell lines to determine their effect on cell proliferation.

[2] = Preliminary toxicity experiments (Comet assay, bone marrow); format: in vivo; details: mice
Description: As a preliminary toxicity assessment of the Aza-T-dCyd compound, preliminary toxicity experiments were conducted to determine the presence of toxicity symptoms (tissue changes) and DNA damage in bone marrow in mice after 2 weeks of systemic administration, and to assess the cellular composition in bone marrow of mice after 4 weeks of systemic administration.

[3] = Pharmacokinetic evaluation in Mice (Table 3); format: in vivo; details: for AUC(0-inf) / AUC(0-t) / Cmax / Tmax / half-life: mouse, in vivo, Mice; for half-life: read-out: T½ (converted)
Description: (§1) Aza-T-dCyd was administered orally and intravenously at various concentrations to Mice, Rats and Dogs to determine the PK profile.

[4] = Pharmacokinetic evaluation in Rat; format: in vivo; details: for AUC(0-inf) / AUC(0-t) / Cmax / half-life / Tmax: in vivo, Rat; for half-life: read-out: T½ (converted)
Description: as §1

[5] = Human PK simulation / human dose projection; details: 16 mg/day human dose
Description: The human dose of NTX-301 should be divided by 3 or 4 to adjust the mouse exposure.
The 96 mg/day must be divided by 3 or 4, resulting in 24 to 32 mg/day.
This was a safe and effective dose in mice.
Furthermore, based on the results of the combination with Venetoclax in the mouse model, an effective dose of 0.5 to 1.0 mg/kg was determined, which translates to a human dose of 8 to 16 mg+Venetoclax.

cytidine deaminase = experiment: Degradation by cytidine deaminase
Description: Decitabine/Azacytidine is susceptible to metabolism by cytidine deaminases in the body, resulting in an unstable PK profile that limits its efficacy.

In the case of Nc1ncn([C@H]2CC(O)[C@@H](CO)S2)c(=O)n1 (stereo partly drawn) [Aza-T-dCyd, 4′-thio-5-aza-2′-deoxycytidine], the target organs (GLP dog toxicology study) was “bone marrow, thymus, gastrointestinal tract, tonsils, and testes”, the “AUC value at which efficacy is shown” value (MDS/AML model; MDS/AML model) was 60 ng·h/mL and the “AUC value of best therapeutic efficacy” value (MDS/AML model; MDS/AML model) was 200 to 250 ng·h/mL. The “AUC of best efficacy relative to the HNSTD” value (MDS/AML model; most sensitive species) was “about 25%”, the “AUC of best efficacy relative to the NOAEL value” (MDS/AML model; most sensitive species) was “about 50%” and the “DNMT3B protein of approximately 90 kDa” value (DNMT3B; Molm13 AML xenograft, above 0.4 mg/kg) was “clear reduction of DNMT3B protein”. The “DNMT3B in cancer tissues (Western blotting)” value (DNMT3B; Molm13 xenograft, after administration) was “strongly inhibited DNMT1 and DNMT3B in a concentration-dependent manner”, the “overall DNA methylation levels” value (DNA methylation) was “decrease in overall DNA methylation levels” and the “pattern of DNA demethylation” value (DNA methylation) was “biased and selective demethylation”. The “Optimal T/C (%) (test/control)” value (BL0382PD PDX (bladder)) was 23%, the “cytotoxicity in DNMT1 knock-out cell line” value [1] was “decrease in cytotoxicity” and the GI50 (leukemia cell lines) was 14 to 690 nM. The “cellular composition of the bone marrow” value ([2]; 4 weeks of continuous administration) was “no changes in the various cells that make up the bone marrow”, the “organ damage at necropsy” value ([2]; after two weeks) was “no organ damage” and the “Comet assay for DNA damage in bone marrow” value ([2]; after two weeks of treatment, versus untreated control) was “no changes in various indicators of DNA damage”. The weight changes ([2]; two-week systemic administration) was “no significant weight changes”, the oral bioavailability ([3]; mice) was “orally bioavailable” and the AUC(0-inf) ([3]; Table 3, IV 1 mg/kg) was 269 ng·h/mL. For the same compound, the AUC(0-t) ([3]; Table 3, IV 1 mg/kg) was 257 ng·h/mL, the Cmax ([3]; Table 3, IV 1 mg/kg) was 341 ng/mL and the Tmax ([3]; Table 3, IV 1 mg/kg) was 4.98 min. The half-life ([3]; Table 3, IV 1 mg/kg) was 30.2 min, the AUC(0-inf) ([3]; Table 3, PO 0.5 mg/kg) was 68.5 ng·h/mL and the AUC(0-t) ([3]; Table 3, PO 0.5 mg/kg) was 62.4 ng·h/mL. For the same compound, the Cmax ([3]; Table 3, PO 0.5 mg/kg) was 51.8 ng/mL, the Tmax ([3]; Table 3, PO 0.5 mg/kg) was 18 min and the half-life ([3]; Table 3, PO 0.5 mg/kg) was 42.1 min. It also gave an AUC(0-inf) ([3]; Table 3, PO 1 mg/kg) of 112 ng·h/mL, an AUC(0-t) ([3]; Table 3, PO 1 mg/kg) of 106 ng·h/mL and a Cmax ([3]; Table 3, PO 1 mg/kg) of 103 ng/mL. For the same compound, the Tmax ([3]; Table 3, PO 1 mg/kg) was 18 min, the half-life ([3]; Table 3, PO 1 mg/kg) was 37.7 min and the AUC(0-inf) ([3]; Table 3, PO 3 mg/kg) was 931 ng·h/mL. For the same compound, the AUC(0-t) ([3]; Table 3, PO 3 mg/kg) was 919 ng·h/mL, the Cmax ([3]; Table 3, PO 3 mg/kg) was 576 ng/mL and the Tmax ([3]; Table 3, PO 3 mg/kg) was 27 min. The half-life ([3]; Table 3, PO 3 mg/kg) was 49.4 min, the AUC(0-inf) ([3]; Table 3, PO 10 mg/kg) was 2600 ng·h/mL and the AUC(0-t) ([3]; Table 3, PO 10 mg/kg) was 2580 ng·h/mL. For the same compound, the Cmax ([3]; Table 3, PO 10 mg/kg) was 1930 ng/mL, the Tmax ([3]; Table 3, PO 10 mg/kg) was 27 min and the half-life ([3]; Table 3, PO 10 mg/kg) was 66.6 min. For the same compound, the AUC(0-inf) ([4]; IV 1 mg/kg) was 1900 ng·h/mL, the AUC(0-t) ([4]; IV 1 mg/kg) was 1330 ng·h/mL and the Cmax ([4]; IV 1 mg/kg) was 444 ng/mL. The half-life ([4]; IV 1 mg/kg) was 301 min, the AUC(0-inf) ([4]; PO 0.5 mg/kg) was 303 ng·h/mL and the AUC(0-t) ([4]; PO 0.5 mg/kg) was 190 ng·h/mL. The Cmax ([4]; PO 0.5 mg/kg) was 33.8 ng/mL, the Tmax ([4]; PO 0.5 mg/kg) was 120 min and the half-life ([4]; PO 0.5 mg/kg) was 314 min. For the same compound, the AUC(0-inf) ([4]; PO 1 mg/kg) was 790 ng·h/mL, the AUC(0-t) ([4]; PO 1 mg/kg) was 459 ng·h/mL and the Cmax ([4]; PO 1 mg/kg) was 81.9 ng/mL. It also gave a Tmax ([4]; PO 1 mg/kg) of 70.2 min, a half-life ([4]; PO 1 mg/kg) of 378 min and an AUC(0-inf) ([4]; PO 3 mg/kg) of 2800 ng·h/mL. The AUC(0-t) ([4]; PO 3 mg/kg) was 2780 ng·h/mL, the Cmax ([4]; PO 3 mg/kg) was 488 ng/mL and the Tmax ([4]; PO 3 mg/kg) was 49.8 min. The half-life ([4]; PO 3 mg/kg) was 207 min, the AUC(0-inf) ([4]; PO 10 mg/kg) was 9240 ng·h/mL and the AUC(0-t) ([4]; PO 10 mg/kg) was 9200 ng·h/mL. The Cmax ([4]; PO 10 mg/kg) was 1320 ng/mL, the Tmax ([4]; PO 10 mg/kg) was 120 min and the half-life ([4]; PO 10 mg/kg) was 177 min. For the same compound, the oral bioavailability ([4]; rats) was “orally bioavailable”, the “human AUC converted to the mouse AUC value (factor of 3-4)” value [5] was 150 to 200 ng·h/mL and the “rate of degradation by cytidine deaminase” value (cytidine deaminase) was “slower rate of degradation by cytidine deaminase”.
